In US10239849B2 (Merck Sharp & Dohme Corp., priority 2015, dated 2019):

Columns and labels:
[1] = target: T1, glutathione-S-transferase (GST) tagged LXRbeta LBD (ligand binding domain) (Homo sapiens, UniProt P55055); assay: LanthaScreen TR-FRET Liver X Receptor Coactivator Assay, LXR beta-LBD; format: biochemical; details: for Emax: efficacy in relation to reference dual agonist T1317, read-out: LXR beta activity at max dose (%) (Emax); for EC50: potency (Inflection Point) of co-activator recruitment, TR-FRET, read-out: LXR beta IP
T1 construct: purchased Invitrogen pv4658.pps
T1 sequence (P55055 222-460 limits assumed): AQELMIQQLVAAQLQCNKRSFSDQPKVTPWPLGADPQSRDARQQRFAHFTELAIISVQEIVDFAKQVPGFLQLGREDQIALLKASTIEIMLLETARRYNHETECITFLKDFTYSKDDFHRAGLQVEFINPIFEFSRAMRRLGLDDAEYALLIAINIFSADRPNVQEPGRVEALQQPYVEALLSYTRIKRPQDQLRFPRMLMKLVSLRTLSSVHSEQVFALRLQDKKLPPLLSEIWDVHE
Summary of the method: (§1)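 Compound + LBD (alpha or beta); add fluorescein coactivator peptide/Tb anti-GST Ab mix; incubate RT; read TR-FRET.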

[2] = target: T2, glutathione-S-transferase (GST) tagged LXRalpha LBD (ligand binding domain) (Homo sapiens, UniProt Q13133); assay: LanthaScreen TR-FRET Liver X Receptor Coactivator Assay, LXR alpha-LBD; format: biochemical; details: for Emax: efficacy in relation to reference dual agonist T1317, read-out: LXR alpha activity at max dose (%) (Emax); for EC50 / LXR alpha IP (nM): potency (Inflection Point) of co-activator recruitment, TR-FRET; for EC50: read-out: LXR alpha IP
T2 construct: purchased Invitrogen pv4655
T2 sequence (Q13133 209-447 limits assumed): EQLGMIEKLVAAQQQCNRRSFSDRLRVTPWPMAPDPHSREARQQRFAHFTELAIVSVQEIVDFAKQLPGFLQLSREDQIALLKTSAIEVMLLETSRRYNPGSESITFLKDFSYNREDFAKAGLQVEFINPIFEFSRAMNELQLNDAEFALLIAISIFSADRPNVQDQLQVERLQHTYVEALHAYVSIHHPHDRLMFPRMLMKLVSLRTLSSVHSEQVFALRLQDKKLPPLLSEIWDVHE
Summary of the method: as §1

| Compound | Emax [1] | EC50 [1] | Emax [2] | EC50 [2] | LXR alpha IP (nM) [2] |
| --- | --- | --- | --- | --- | --- |
| Cc1ccccc1COC(=O)N1CCN(c2ncc(-c3ccc(C(=O)N(C)C)c(Cl)c3)cc2C#N)CC1 [Example 3-4, 2-methylbenzyl 4-{5-[3-chloro-4-(dimethylcarbamoyl)phenyl]-3-cyanopyridin-2-yl}piperazine-1-carboxylate] | 86% | 87 nM | 122% | 2820 nM | – |
| Cc1cccc(COC(=O)N2CCN(c3ncc(-c4ccc(C(=O)N(C)C)c(Cl)c4)cc3C#N)CC2)c1 [Example 3-5, 3-methylbenzyl 4-{5-[3-chloro-4-(dimethylcarbamoyl)phenyl]-3-cyanopyridin-2-yl}piperazine-1-carboxylate] | 97% | 56 nM | 57% | 1340 nM | – |
| CN(C)C(=O)c1ccc(-c2cnc(N3CCN(C(=O)OCc4ccccc4F)CC3)c(C#N)c2)cc1Cl [Example 3-6, 2-fluorobenzyl 4-{5-[3-chloro-4-(dimethylcarbamoyl)phenyl]-3-cyanopyridin-2-yl}piperazine-1-carboxylate] | 92% | 21 nM | 50% | 6610 nM | – |
| COc1ccccc1COC(=O)N1CCN(c2ncc(-c3ccc(C(=O)N(C)C)c(Cl)c3)cc2C#N)CC1 [Example 3-7, 2-methoxybenzyl 4-{5-[3-chloro-4-(dimethylcarbamoyl)phenyl]-3-cyanopyridin-2-yl}piperazine-1-carboxylate] | 85% | 36 nM | 41% | 8590 nM | – |
| COc1ccc(COC(=O)N2CCN(c3ncc(-c4ccc(C(=O)N(C)C)c(Cl)c4)cc3C#N)CC2)cc1 [Example 3-8, 4-methoxybenzyl 4-{5-[3-chloro-4-(dimethylcarbamoyl)phenyl]-3-cyanopyridin-2-yl}piperazine-1-carboxylate] | 65% | 210 nM | 65% | 24600 nM | – |
| CN(C)C(=O)c1ccc(-c2cnc(N3CCN(C(=O)OCc4ccccc4Cl)CC3)c(C#N)c2)cc1Cl [Example 3-9, 2-chlorobenzyl 4-{5-[3-chloro-4-(dimethylcarbamoyl)phenyl]-3-cyanopyridin-2-yl}piperazine-1-carboxylate] | 84% | 155 nM | 39% | 8900 nM | – |
| CN(C)C(=O)c1ccc(-c2cnc(N3CCN(C(=O)OCc4cccc(Cl)c4)CC3)c(C#N)c2)cc1Cl [Example 3-10, 3-chlorobenzyl 4-{5-[3-chloro-4-(dimethylcarbamoyl)phenyl]-3-cyanopyridin-2-yl}piperazine-1-carboxylate] | 75% | 68 nM | 79% | 23500 nM | – |
| CN(C)C(=O)c1ccc(-c2cnc(N3CCN(C(=O)OCc4ccccc4C(F)(F)F)CC3)c(C#N)c2)cc1Cl [Example 3-11, 2-(trifluoromethyl)benzyl 4-{5-[3-chloro-4-(dimethylcarbamoyl)phenyl]-3-cyanopyridin-2-yl}piperazine-1-carboxylate] | 96% | 79 nM | 39% | 1200 nM | – |
| CN(C)C(=O)c1ccc(-c2cnc(N3CCN(C(=O)OCC4(C)CC4)CC3)c(C#N)c2)cc1Cl [Example 3-12, (1-methylcyclopropyl)methyl 4-{5-[3-chloro-4-(dimethylcarbamoyl)phenyl]-3-cyanopyridin-2-yl}piperazine-1-carboxylate] | 55% | 39 nM | 30% | 4330 nM | – |
| CN(C)C(=O)c1ccc(-c2cnc(N3CCN(C(=O)OCC4CC4(C)C)CC3)c(C#N)c2)cc1Cl (centres unmarked) [Example 3-13, (2,2-dimethylcyclopropyl)methyl 4-{5-[3-chloro-4-(dimethylcarbamoyl)phenyl]-3-cyanopyridin-2-yl}piperazine-1-carboxylate] | 31% | 105 nM | 16% | – | No IP |
| CN(C)C(=O)c1ccc(-c2cnc(N3CCN(C(=O)OCc4ccccc4)CC3)c(C#N)c2)cc1Cl [Example 3-14, benzyl 4-{5-[3-chloro-4-(dimethylcarbamoyl)phenyl]-3-cyanopyridin-2-yl}piperazine-1-carboxylate] | 74% | 57 nM | 26% | 4830 nM | – |
| CN(C)C(=O)c1ccc(-c2ccc(N3CCN(C(=O)c4ccccc4C#N)CC3)cc2)cc1Cl [Example 4-2, 3-chloro-4′-{4-[(2-cyanophenyl)carbonyl]piperazin-1-yl}-N,N-dimethylbiphenyl-4-carboxamide] | 93% | 2320 nM | 24% | – | No IP |
| CN(C)C(=O)c1ccc(-c2ccc(N3CC4CCC3CN4C(=O)OC(C)(C)C)c(Cl)c2)cc1Cl (centres unmarked) [Example 4-3, tert-butyl 5-[3,3′-dichloro-4′-(dimethylcarbamoyl)biphenyl-4-yl]-2,5-diazabicyclo[2.2.2]octane-2-carboxylate] | 87% | 39 nM | 79% | 1570 nM | – |
| CN(C)C(=O)c1ccc(-c2ccc(N3CCN(C(=O)c4ccccc4Cl)CC3)c(Cl)c2)cc1Cl [Example 4-4, 3,3′-dichloro-4′-{4-[(2-chlorophenyl)carbonyl]piperazin-1-yl}-N,N-dimethylbiphenyl-4-carboxamide] | 75% | 98 nM | 44% | 1310 nM | – |
| CN(C)C(=O)c1ccc(-c2ccc(N3CCN(C(=O)c4c(F)cccc4Cl)CC3)c(Cl)c2)cc1Cl [Example 4-5, 3,3′-dichloro-4′-{4-[(2-chloro-6-fluorophenyl)carbonyl]piperazin-1-yl}-N,N-dimethylbiphenyl-4-carboxamide] | 88% | 39 nM | 63% | 618 nM | – |
| CN(C)C(=O)c1ccc(-c2cc(Cl)c(N3CCN(C(=O)c4ccccc4Cl)CC3)c(Cl)c2)cc1Cl [Example 4-6, 3,3′,5′-trichloro-4′-{4-[(2-chlorophenyl)carbonyl]piperazin-1-yl}-N,N-dimethylbiphenyl-4-carboxamide] | 39% | 188 nM | 16% | 1600 nM | – |
| CN(C)C(=O)c1ccc(-c2ccc(N3CCN(C(=O)c4c(F)cccc4C(F)(F)F)CC3)c(Cl)c2)cc1Cl [Example 4-7, 3,3′-dichloro-4′-(4-{[2-fluoro-6-(trifluoromethyl)phenyl]carbonyl}piperazin-1-yl)-N,N-dimethylbiphenyl-4-carboxamide] | 83% | 106 nM | 64% | 1280 nM | – |
| CN(C)C(=O)c1ccc(-c2ccc(N3CCN(S(=O)(=O)c4c(Cl)cccc4Cl)CC3)c(Cl)c2)cc1Cl [Example 4-8, 3,3′-dichloro-4′-{4-[(2,6-dichlorophenyl)sulfonyl]piperazin-1-yl}-N,N-dimethylbiphenyl-4-carboxamide] | 101% | 2820 nM | 38% | 10500 nM | – |
| CN(C)C(=O)c1ccc(-c2ccc(N3CCN(S(=O)(=O)c4c(Cl)cccc4C(F)(F)F)CC3)c(Cl)c2)cc1Cl [Example 4-9, 3,3′-dichloro-4′-(4-{[2-chloro-6-(trifluoromethyl)phenyl]sulfonyl}piperazin-1-yl)-N,N-dimethylbiphenyl-4-carboxamide] | 96% | 597 nM | 51% | 4130 nM | – |
| CN(C)C(=O)c1ccc(-c2cc(Cl)c(N3CCN(S(=O)(=O)c4c(Cl)cccc4Cl)CC3)c(Cl)c2)cc1Cl [Example 4-10, 3,3′,5′-trichloro-4′-{4-[(2,6-dichlorophenyl)sulfonyl]piperazin-1-yl}-N,N-dimethylbiphenyl-4-carboxamide] | 77% | 94 nM | 30% | 1260 nM | – |
| CN(C)C(=O)c1ccc(-c2ccc(N3CCN(C(=O)OC(C)(C)C)CC3)cc2)cc1Cl [Example 4-11, tert-butyl 4-[3′-chloro-4′-(dimethylcarbamoyl)biphenyl-4-yl]piperazine-1-carboxylate] | 82% | 238 nM | 55% | 5470 nM | – |
| CN(C)C(=O)c1ccc(-c2ccc(N3CCN(C(=O)c4c(F)cccc4C(F)(F)F)CC3)cc2)cc1Cl [Example 4-12, 3-chloro-4′-(4-{[2-fluoro-6-(trifluoromethyl)phenyl]carbonyl}piperazin-1-yl)-N,N-dimethylbiphenyl-4-carboxamide] | 83% | 881 nM | 20% | – | No IP |
| CN(C)C(=O)c1ccc(-c2ccc(N3CCN(S(=O)(=O)c4c(Cl)cccc4Cl)CC3)cc2)cc1Cl [Example 4-13, 3-chloro-4′-{4-[(2,6-dichlorophenyl)sulfonyl]piperazin-1-yl}-N,N-dimethylbiphenyl-4-carboxamide] | 97% | 380 nM | 29% | 5730 nM | – |
